Source: the supplement of paper PMC10307832

Experiments:
Test in all cases: relative viability (nuclei count vs DMSO), 5 days (fraction); higher = more cells survive
Trametinib + Navitoclax = compound: CC(=O)Nc1cccc(-n2c(=O)n(C3CC3)c(=O)c3c(Nc4ccc(I)cc4F)n(C)c(=O)c(C)c32)c1 [Trametinib] + CC1(C)CCC(c2ccc(Cl)cc2)=C(CN2CCN(c3ccc(C(=O)NS(=O)(=O)c4ccc(N[C@H](CCN5CCOCC5)CSc5ccccc5)c(S(=O)(=O)C(F)(F)F)c4)cc3)CC2)C1 [Navitoclax] (partner 0.5 µM)
In short: (§1)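 Lung cancer cell lines, seeded in 1536-well plates, were treated the following day by pin tool with a single drug or with five library-drug doses (not always all listed) in √10 steps on top of a fixed anchor-drug dose. Cells were fixed and nuclei stained in one step after 5 days, and nuclei were counted. Relative viability is the nuclei count for treated wells divided by that for vehicle wells, reported as medians of duplicate plates.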

Trametinib + Tozasertib = compound: CC(=O)Nc1cccc(-n2c(=O)n(C3CC3)c(=O)c3c(Nc4ccc(I)cc4F)n(C)c(=O)c(C)c32)c1 [Trametinib] + Cc1cc(Nc2cc(N3CCN(C)CC3)nc(Sc3ccc(NC(=O)C4CC4)cc3)n2)n[nH]1 [Tozasertib] (partner 0.1 µM)
In short: as §1

[1] = compound: CN1C=C(C2=CC=CC=C21)/C=C\3/C4=C(C=CC=N4)NC3=O + C[C@]1(O)C[C@@H](c2nc(-c3ccc4ccc(-c5ccccc5)nc4c3)c3c(N)nccn32)C1 [Linsitinib] (partner 1 µM)
In short: as §1

Trametinib + Luminespib = compound: CC(=O)Nc1cccc(-n2c(=O)n(C3CC3)c(=O)c3c(Nc4ccc(I)cc4F)n(C)c(=O)c(C)c32)c1 [Trametinib] + CCNC(=O)c1noc(-c2cc(C(C)C)c(O)cc2O)c1-c1ccc(CN2CCOCC2)cc1 [Luminespib] (partner 0.01 µM)
In short: as §1

| Cell Line | relative viability (Trametinib + Navitoclax; first compound 0.0025 µM) | relative viability (Trametinib + Navitoclax; first compound 0.007906 µM) | relative viability (Trametinib + Navitoclax; first compound 0.025 µM) | relative viability (Trametinib + Navitoclax; first compound 0.07906 µM) | relative viability (Trametinib + Navitoclax; first compound 0.25 µM) | relative viability (Trametinib + Tozasertib; first compound 0.0025 µM) | relative viability (Trametinib + Tozasertib; first compound 0.007906 µM) | relative viability (Trametinib + Tozasertib; first compound 0.025 µM) | relative viability (Trametinib + Tozasertib; first compound 0.07906 µM) | relative viability (Trametinib + Tozasertib; first compound 0.25 µM) | relative viability ([1]; first compound 0.02 µM) | relative viability ([1]; first compound 0.06325 µM) | relative viability ([1]; first compound 0.2 µM) | relative viability ([1]; first compound 0.6325 µM) | relative viability ([1]; first compound 2 µM) | relative viability (Trametinib + Luminespib; first compound 0.0025 µM) | relative viability (Trametinib + Luminespib; first compound 0.007906 µM) | relative viability (Trametinib + Luminespib; first compound 0.025 µM) | relative viability (Trametinib + Luminespib; first compound 0.07906 µM) | relative viability (Trametinib + Luminespib; first compound 0.25 µM) |
| --- | --- | --- | --- | --- | --- | --- | --- | --- | --- | --- | --- | --- | --- | --- | --- | --- | --- | --- | --- | --- |
| HCC-78 | 0.728 | 0.591 | 0.558 | 0.624 | 0.42 | 0.426 | 0.416 | 0.38 | 0.452 | 0.36 | 0.444 | 0.51 | 0.233 | 0.423 | 0.487 | – | – | – | – | – |
| HCC-366 | 0.977 | 0.926 | 0.7 | 0.531 | 0.275 | 0.117 | 0.0857 | 0.0884 | 0.07 | 0.0695 | 0.616 | 0.566 | 0.656 | 0.575 | 0.51 | – | – | – | – | – |
| HCC-827 | 1.06 | 0.971 | 1.03 | 0.946 | 0.676 | 0.406 | 0.401 | 0.31 | 0.293 | 0.307 | 0.929 | 0.923 | – | 0.944 | 0.926 | 0.63 | 0.24 | 0.219 | 0.228 | 0.153 |
| HOP-62 | 1.05 | 1.03 | 0.741 | 0.617 | 0.198 | 0.419 | 0.367 | 0.374 | 0.232 | 0.203 | 0.923 | 0.961 | 1.07 | 1.03 | 1.02 | 0.933 | 0.754 | 0.533 | 0.361 | 0.173 |
| IA-LM | 0.584 | 0.383 | 0.179 | 0.1 | 0.0292 | – | – | – | – | – | 0.85 | 0.668 | 0.477 | 0.762 | 0.771 | – | – | – | – | – |
| LC-2-ad | 0.35 | 0.306 | 0.34 | 0.285 | 0.173 | 0.487 | 0.406 | 0.406 | 0.393 | 0.306 | 0.743 | 0.83 | 0.766 | 0.864 | 0.765 | 0.975 | 0.951 | 1 | 0.71 | 0.447 |
| LCLC-97TM1 | 0.427 | 0.451 | 0.216 | 0.207 | 0.122 | 0.202 | 0.29 | 0.225 | 0.143 | 0.19 | 0.164 | – | – | 0.203 | 0.179 | 0.802 | 0.493 | 0.291 | 0.226 | 0.234 |
| LCLC-103H | – | – | – | – | – | 0.495 | 0.451 | 0.417 | 0.406 | 0.35 | 1.13 | 1.13 | 1.07 | 1.13 | 1.11 | 0.769 | 0.761 | 0.735 | 0.767 | 0.668 |
| LK-2 | 0.745 | 0.897 | 0.767 | 0.946 | 0.368 | 0.183 | 0.17 | 0.186 | 0.217 | 0.184 | 0.365 | 0.333 | – | 0.474 | 0.504 | 0.159 | 0.183 | 0.223 | 0.161 | 0.191 |
| NCI-H358 | – | – | – | – | – | 0.112 | 0.107 | 0.0799 | 0.0885 | 0.0721 | 0.632 | 0.643 | 0.881 | 0.795 | 0.686 | 0.264 | 0.18 | 0.132 | 0.107 | 0.11 |
| NCI-H522 | – | – | – | – | – | 0.583 | 0.529 | 0.455 | 0.526 | 0.446 | – | – | – | – | – | 1.04 | 0.917 | 1 | 0.844 | 0.574 |
| NCI-H650 | – | – | – | – | – | 0.733 | 0.774 | 0.621 | 0.569 | 0.329 | 0.91 | 0.955 | – | 0.677 | 0.807 | 0.862 | 0.828 | 0.659 | 0.578 | 0.375 |
| NCI-H661 | – | – | – | – | – | 0.365 | 0.378 | 0.432 | 0.389 | 0.404 | 0.689 | 0.536 | 0.578 | 0.486 | 0.559 | 0.914 | 0.917 | 0.888 | 0.702 | 0.641 |
| NCI-H1299 | 1.04 | 1.01 | 0.896 | 0.887 | 0.78 | – | – | – | – | – | 1.07 | 1.03 | 1.06 | 1.06 | 1.05 | – | – | – | – | – |
| NCI-H1563 | – | – | – | – | – | – | – | – | – | – | 1.24 | 1.17 | 1.11 | 1.17 | 1.26 | 0.515 | 0.481 | 0.505 | 0.476 | 0.569 |
| NCI-H1623 | – | – | – | – | – | 0.355 | 0.364 | 0.299 | 0.256 | 0.314 | – | – | – | – | – | 0.593 | 0.406 | 0.315 | 0.287 | 0.344 |
| NCI-H1648 | – | – | – | – | – | – | 0.611 | 0.515 | 0.4 | 0.352 | – | – | – | – | – | – | – | – | – | – |
| NCI-H1650 | 0.94 | 0.857 | 0.816 | 0.473 | 0.35 | 0.422 | 0.434 | 0.397 | 0.374 | 0.23 | – | – | – | – | – | 0.209 | 0.2 | 0.176 | 0.174 | 0.211 |
| NCI-H1703 | 1.15 | 1.15 | 1.06 | 0.972 | 0.987 | – | – | – | – | – | 0.489 | 0.848 | 0.581 | 0.94 | 1.02 | – | – | – | – | – |
| NCI-H1792 | 0.646 | 0.596 | 0.417 | 0.392 | 0.332 | – | – | – | – | – | 0.37 | 0.495 | 0.391 | – | 0.486 | 0.399 | 0.348 | 0.294 | 0.286 | 0.238 |
| NCI-H2170 | 0.636 | 0.521 | – | 0.425 | 0.448 | 0.733 | 0.702 | 0.466 | 0.709 | 0.616 | – | – | – | – | – | 0.58 | 0.749 | 0.399 | 0.559 | 0.431 |
| NCI-H2342 | – | – | – | – | – | 0.488 | 0.435 | – | 0.516 | 0.492 | – | – | – | – | – | 0.728 | 0.582 | – | 0.587 | 0.604 |
| SW 900 | – | – | – | – | – | 0.579 | 0.547 | 0.724 | 0.511 | 0.412 | – | – | – | – | – | 0.189 | 0.167 | 0.15 | 0.169 | 0.17 |
